Assay results published in patent US7645785B2, “Benzimidazole derivatives” (Hoffmann-La Roche Inc., priority 2006, dated 2010).

How the values were obtained:
[1] = molecular target: T1, FXR-LBD (pFA-FXR-LBD, Gal4 fusion) in BHK21 cells (Homo sapiens, UniProt Q96RI1); test: Luciferase transcriptional reporter gene assay; format: cell-based
T1 sequence (Q96RI1 262-486 limits assumed): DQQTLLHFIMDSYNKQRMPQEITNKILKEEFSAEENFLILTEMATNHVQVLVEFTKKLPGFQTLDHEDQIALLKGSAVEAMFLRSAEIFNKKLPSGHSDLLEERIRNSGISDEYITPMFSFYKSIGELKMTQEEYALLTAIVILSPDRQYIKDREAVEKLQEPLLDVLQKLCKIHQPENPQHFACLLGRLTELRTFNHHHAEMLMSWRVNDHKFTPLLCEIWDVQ
From the text: (§1) Bacterial and mammalian expression vectors were constructed to produce glutathione-s-transferase (GST) and Gal4 DNA binding domain (GAL) proteins fused to the ligand binding domain (LBD) of human FXR (aa 193-473). To accomplish this, the portions of the sequences encoding the FXR LBD were amplified by polymerase chain reaction (PCR) from a full-length clone by PCR and then subcloned into the plasmid vectors. The final clone was verified by DNA sequence analysis.
Luciferase Transcriptional Reporter Gene Assays
Baby hamster kidney cells (BHK21 ATCC CCL10) were grown in DMEM medium containing 10% FBS at 37° C. in a […]:5% CO2 atmosphere. Cells were seeded in 6-well plates at a density of 10^5 cells/well and then transfected with the pFA-FXR-LBD or expression plasmid plus a reporter plasmid. […] Six hours following transfection, the cells were harvested by trypsinization and seeded in 96-well plates at a density of 10^4 cells/well. […] Luminescence, as a measure of luciferase activity, was detected in a Packard TopCount. Transcriptional activation in the presence of a test substance was expressed as fold-change in luminescence compared to that of cells incubated in the absence of the substance. EC50 values were calculated using the XLfit program (ID Business Solutions Ltd. UK).

[2] = molecular target: T2, FXR ligand binding domain (GST-FXR LBD fusion protein) (Homo sapiens, UniProt Q96RI1); test: Radioligand binding assay (scintillation proximity, radioligand displacement)
T2 construct: made in house; host or cells: E. coli BL21 (pLysS)
T2 sequence (Q96RI1 193-472 isoform Q96RI1-2 limits assumed): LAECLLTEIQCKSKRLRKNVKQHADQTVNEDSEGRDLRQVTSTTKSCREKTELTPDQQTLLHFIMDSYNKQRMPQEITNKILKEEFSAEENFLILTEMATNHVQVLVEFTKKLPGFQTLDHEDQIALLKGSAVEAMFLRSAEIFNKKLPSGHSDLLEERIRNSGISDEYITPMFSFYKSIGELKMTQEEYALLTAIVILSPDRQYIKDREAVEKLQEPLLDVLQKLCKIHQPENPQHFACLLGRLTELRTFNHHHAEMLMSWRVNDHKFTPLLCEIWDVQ
Description: The following tests were carried out in order to determine the activity of the compounds of formula (I). Background information on the binding assay can be found in: Nichols J S et al. “Development of a scintillation proximity assay for peroxisome proliferator-activated receptor gamma ligand binding domain”, (1998) Anal. Biochem. 257: 112-119.
as §1
The induction, expression, and subsequent purification of GST-LBD fusion protein was performed in E. coli strain BL21 (pLysS) cells by standard methods (Current Protocols in Molecular Biology, Wiley Press, ed. Ausubel et al).
Radioligand Binding Assay
Binding of test substances to the FXR ligand binding domain was assessed in a radioligand displacement assay. […] All binding assays were performed in 96-well plates and the amount of bound ligand was measured on a Packard TopCount using OptiPlates (Packard). […]

| EC50 [1] [nM] | IC50 [2] [nM] | SMILES |
| --- | --- | --- |
| 700 | 1500 | CC(C)CC(C(=O)NC1CCCCC1)n1c(-c2ccc(Cl)cc2)nc2ccccc21 (stereo not shown) [Example 2, 2-[2-(4-chloro-phenyl)-benzoimidazol-1-yl]-4-methyl-pentanoic acid cyclohexylamide] |
| 86 | 500 | COc1ccc(-c2nc3ccccc3n2C(C(=O)NCc2ccccc2)C2CCCCC2)c(OC)c1 (stereo not shown) [Example 34, N-benzyl-2-cyclohexyl-2-[2-(2,4-dimethoxy-phenyl)-benzoimidazol-1-yl]-acetamide] |
